Test results: US10363257B2 (ZENITH EPIGENETICS LTD., priority 2013, dated 2019)

How the values were obtained:
[1] = test system: c-myc; assay: Inhibition of c-myc expression (mRNA, real-time PCR) in MV4-11 cells; type: cell-based; settings: Human AML MV4-11 cells, 3 h, cMYC mRNA
In short: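 One-step TaqMan qPCR of cMYC, normalized to an internal control with Cyclophilin probes run, gave fold expression versus DMSO (0.1%) control. Samples: triplicate MV4-11 wells exposed 3 h at 37° C to rising compound concentrations in IMDM with 10% FBS.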

[2] = biological target: T1, Brd4 bromodomain 1 (BRD4(1)) (Homo sapiens, UniProt O60885); assay: Inhibition of tetra-acetylated histone H4 binding to Brd4 bromodomain 1 (TR-FRET); settings: tetra-acetylated histone H4 peptide, first bromodomain of Brd4
T1 construct: made in house; host or cells: E. coli BL21(DE3)
In short: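 Serially diluted compound (0.2% DMSO) incubated 2 h at room temperature with 200 nM N-His BRD4 bromodomain 1 and 25-50 nM biotinylated tetra-acetyl H4 peptide, detected via Eu-streptavidin/XL665 anti-His. Loss of 665 nm relative to 620 nm signal gave IC50 from dose-response.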

[3] = test system: human AML MV-4-11 cells; assay: Inhibition of cell proliferation in MV4-11 cells (CellTiter Aqueous One); type: cell-based; settings: MV4-11, 72 h
In short: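 IC50 values come from blank-corrected proliferation relative to DMSO controls, read as 490 nm absorbance 3–4 h after CellTiter Aqueous One addition. Before that, cells seeded at 5×10^4/well were exposed for 72 h (37° C, 5% CO2) to triplicate two-fold compound dilutions spanning 30–0.2 μM.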

[4] = test system: hIL-6 mRNA; assay: Inhibition of hIL-6 mRNA transcription in LPS-stimulated U937 cells; type: cell-based; settings: Homo sapiens, U-937; PMA-differentiated U937 cells, 1 h pretreatment, 1 ug/mL LPS stimulation, 3 h; read-out: IL-6 activity (Inhibition of hIL-6 mRNA Transcription)
In short: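 U937 cells differentiated 3 days with 60 ng/mL PMA, pretreated 1 h with compound (0.1% DMSO), then stimulated with 1 ug/mL E. coli LPS for 3 h at 37 °C. hIL-6 mRNA measured by one-step TaqMan RT-qPCR, normalized to cyclophilin. Fold expression relative to control; triplicate wells.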

IC50 [1]	IC50 [2]	IC50 [3]	IC50 [4]	SMILES
300 to 3000 nM	≤ 300 nM	300 to 3000 nM	300 to 3000 nM	CC(=O)Nc1cn(Cc2ccccc2)c2cc(-c3c(C)noc3C)cnc12 [compound 99, N-(1-benzyl-6-(3,5-dimethylisoxazol-4-yl)-1H-pyrrolo[3,2-b]pyridin-3-yl)acetamide]
300 to 3000 nM	≤ 300 nM	300 to 3000 nM	300 to 3000 nM	Cc1noc(C)c1-c1cnc2c(N)cn(Cc3ccccc3)c2c1 [compound 100, 1-benzyl-6-(3,5-dimethylisoxazol-4-yl)-1H-pyrrolo[3,2-b]pyridin-3-amine]
≤ 300 nM	≤ 300 nM	300 to 3000 nM	≤ 300 nM	Cc1noc(C)c1-c1cc(N)c2cnn(Cc3ccc(Cl)cc3)c2c1 [compound 102, 1-(4-chlorobenzyl)-6-(3,5-dimethylisoxazol-4-yl)-1H-indazol-4-amine]
300 to 3000 nM	≤ 300 nM	300 to 3000 nM	300 to 3000 nM	COc1ccc(Cn2c(=O)[nH]c3c([N+](=O)[O-])cc(-c4c(C)noc4C)cc32)cc1 [compound 103, 6-(3,5-dimethylisoxazol-4-yl)-1-(4-methoxybenzyl)-4-nitro-1H-benzo[d]imidazol-2(3H)-one]
300 to 3000 nM	≤ 300 nM	300 to 3000 nM	≤ 300 nM	Cc1noc(C)c1-c1cnc2nc(C)n(C(C)c3ccccc3)c2c1 (stereo not drawn) [compound 108, 3,5-dimethyl-4-(2-methyl-1-(1-phenylethyl)-1H-imidazo[4,5-b]pyridin-6-yl)isoxazole]
≤ 300 nM	≤ 300 nM	≤ 300 nM	≤ 300 nM	Cc1noc(C)c1-c1cc(N)c2nc(NC3CCOCC3)n(Cc3ccccc3)c2c1 [compound 109, 1-benzyl-6-(3,5-dimethylisoxazol-4-yl)-N2-(tetrahydro-2H-pyran-4-yl)-1H-benzo[d]imidazole-2,4-diamine]
≤ 300 nM	≤ 300 nM	≤ 300 nM	≤ 300 nM	CC(=O)Nc1cc(-c2c(C)noc2C)cc2c1[nH]c(=O)n2Cc1ccccc1 [compound 111, N-(1-benzyl-6-(3,5-dimethylisoxazol-4-yl)-2-oxo-2,3-dihydro-1H-benzo[d]imidazol-4-yl)acetamide]
≤ 300 nM	≤ 300 nM	≤ 300 nM	≤ 300 nM	CCNc1nc2ncc(-c3c(C)noc3C)cc2n1C(C)c1ccccc1 (stereo not drawn) [compound 113, 6-(3,5-dimethylisoxazol-4-yl)-N-ethyl-1-(1-phenylethyl)-1H-imidazo[4,5-b]pyridin-2-amine]
300 to 3000 nM	≤ 300 nM	300 to 3000 nM	300 to 3000 nM	Cc1noc(C)c1-c1cnc2nc(N3CCOCC3)n(Cc3ccccc3)c2c1 [compound 114, 4-(1-benzyl-6-(3,5-dimethylisoxazol-4-yl)-1H-imidazo[4,5-b]pyridin-2-yl)morpholine]
≤ 300 nM	≤ 300 nM	≤ 300 nM	≤ 300 nM	Cc1noc(C)c1-c1cc(N)c2[nH]c(=O)n(C(C)c3ccccc3)c2c1 (stereo not drawn) [compound 115, 4-amino-6-(3,5-dimethylisoxazol-4-yl)-1-(1-phenylethyl)-1H-benzo[d]imidazol-2(3H)-one]
≤ 300 nM	≤ 300 nM	≤ 300 nM	300 to 3000 nM	Cc1noc(C)c1-c1cc([N+](=O)[O-])c2nc(C)n(CC3CCC3)c2c1 [compound 116, 4-(1-(cyclobutylmethyl)-2-methyl-4-nitro-1H-benzo[d]imidazol-6-yl)-3,5-dimethylisoxazole]
≤ 300 nM	≤ 300 nM	≤ 300 nM	≤ 300 nM	Cc1noc(C)c1-c1cc([N+](=O)[O-])c2nc(C)n(CC3CCCC3)c2c1 [compound 117, 4-(1-(cyclopentylmethyl)-2-methyl-4-nitro-1H-benzo[d]imidazol-6-yl)-3,5-dimethylisoxazole]
300 to 3000 nM	≤ 300 nM	300 to 3000 nM	300 to 3000 nM	Cc1noc(C)c1-c1cnc2[nH]c(=O)n(CC3CC3)c2c1 [compound 118, 1-(cyclopropylmethyl)-6-(3,5-dimethylisoxazol-4-yl)-1H-imidazo[4,5-b]pyridin-2(3H)-one]
≤ 300 nM	≤ 300 nM	≤ 300 nM	≤ 300 nM	CCNc1nc2c(NC(C)=O)cc(-c3c(C)noc3C)cc2n1Cc1ccccc1 [compound 119, N-(1-benzyl-6-(3,5-dimethylisoxazol-4-yl)-2-(ethylamino)-1H-benzo[d]imidazol-4-yl)acetamide]
≤ 300 nM	≤ 300 nM	≤ 300 nM	300 to 3000 nM	Cc1noc(C)c1-c1cc(Br)c2nc(C)n(Cc3ccccc3)c2c1 [compound 121, 4-(1-benzyl-4-bromo-2-methyl-1H-benzo[d]imidazol-6-yl)-3,5-dimethylisoxazole]
300 to 3000 nM	≤ 300 nM	≤ 300 nM	300 to 3000 nM	CCn1c(=O)n(Cc2ccccc2)c2cc(-c3c(C)noc3C)ccc21 [compound 122]
≤ 300 nM	≤ 300 nM	300 to 3000 nM	≤ 300 nM	Cc1noc(C)c1-c1cnc2nc(N3CCC3)n(Cc3ccccc3)c2c1 [compound 123, 4-(2-(azetidin-1-yl)-1-benzyl-1H-imidazo[4,5-b]pyridin-6-yl)-3,5-dimethylisoxazole]
≤ 300 nM	≤ 300 nM	≤ 300 nM	≤ 300 nM	CCNc1nc2c([N+](=O)[O-])cc(-c3c(C)noc3C)cc2n1C(C)c1ccccc1 (stereo not drawn) [compound 127, 6-(3,5-dimethylisoxazol-4-yl)-N-ethyl-4-nitro-1-(1-phenylethyl)-1H-benzo[d]imidazol-2-amine]
≤ 300 nM	≤ 300 nM	300 to 3000 nM	≤ 300 nM	Cc1noc(C)c1-c1cc(N)c2[nH]c(=O)n(Cc3ccc(O)cc3)c2c1 [compound 129, 4-amino-6-(3,5-dimethylisoxazol-4-yl)-1-(4-hydroxybenzyl)-1H-benzo[d]imidazol-2(3H)-one]
300 to 3000 nM	≤ 300 nM	300 to 3000 nM	300 to 3000 nM	CCNc1nc2ncc(-c3c(C)noc3C)cc2n1CC1CC1 [compound 131, 1-(cyclopropylmethyl)-6-(3,5-dimethylisoxazol-4-yl)-N-ethyl-1H-imidazo[4,5-b]pyridin-2-amine]
300 to 3000 nM	≤ 300 nM	300 to 3000 nM	≤ 300 nM	Cc1noc(C)c1-c1cc(N)c2nc(C)n(CC3CCC3)c2c1 [compound 132, 1-(cyclobutylmethyl)-6-(3,5-dimethylisoxazol-4-yl)-2-methyl-1H-benzo[d]imidazol-4-amine]
≤ 300 nM	≤ 300 nM	300 to 3000 nM	≤ 300 nM	Cc1noc(C)c1-c1cc(N)c2nc(C)n(CC3CCCC3)c2c1 [compound 133, 1-(cyclopentylmethyl)-6-(3,5-dimethylisoxazol-4-yl)-2-methyl-1H-benzo[d]imidazol-4-amine]
≤ 300 nM	≤ 300 nM	≤ 300 nM	≤ 300 nM	Cc1noc(C)c1-c1cc(N)c2nc(N3CCCC3)n(Cc3ccccc3)c2c1 [compound 140, 1-benzyl-6-(3,5-dimethylisoxazol-4-yl)-2-(pyrrolidin-1-yl)-1H-benzo[d]imidazol-4-amine]
≤ 300 nM	≤ 300 nM	≤ 300 nM	≤ 300 nM	Cc1noc(C)c1-c1cc(N)c2nc(N3CCN(C)CC3)n(Cc3ccccc3)c2c1 [compound 141, 1-benzyl-6-(3,5-dimethylisoxazol-4-yl)-2-(4-methylpiperazin-1-yl)-1H-benzo[d]imidazol-4-amine]
≤ 300 nM	≤ 300 nM	≤ 300 nM	≤ 300 nM	Cc1noc(C)c1-c1cc(N)c2nc(C)n([C@@H](C)c3ccccc3)c2c1 [compound 143, (S)-6-(3,5-dimethylisoxazol-4-yl)-2-methyl-1-(1-phenylethyl)-1H-benzo[d]imidazol-4-amine]
≤ 300 nM	≤ 300 nM	≤ 300 nM	≤ 300 nM	Cc1noc(C)c1-c1cc(N)c2nc(C)n([C@H](C)c3ccccc3)c2c1 [compound 144, (R)-6-(3,5-dimethylisoxazol-4-yl)-2-methyl-1-(1-phenylethyl)-1H-benzo[d]imidazol-4-amine]
≤ 300 nM	≤ 300 nM	≤ 300 nM	≤ 300 nM	CNc1nc2ncc(-c3c(C)noc3C)cc2n1Cc1ccccc1 [compound 146, 1-benzyl-6-(3,5-dimethylisoxazol-4-yl)-N-methyl-1H-imidazo[4,5-b]pyridin-2-amine]
